Key:
Cholinesterase = Cholinesterase (Homo sapiens, UniProt P06276)
Description: Inhibitory concentration against Butyrylcholinesterase from human erythrocytes

Acetylcholinesterase [1] = target: Acetylcholinesterase (Homo sapiens, UniProt P22303)
Description: Inhibitory concentration against Acetylcholinesterase from human erythrocytes

Acetylcholinesterase [2] = target: T1, Acetylcholinesterase (Bos taurus, UniProt P23795); assay: Inhibitory concentration against Acetylcholinesterase from bovine erythrocytes after 45 min incubation
T1 sequence (P23795 whole entry): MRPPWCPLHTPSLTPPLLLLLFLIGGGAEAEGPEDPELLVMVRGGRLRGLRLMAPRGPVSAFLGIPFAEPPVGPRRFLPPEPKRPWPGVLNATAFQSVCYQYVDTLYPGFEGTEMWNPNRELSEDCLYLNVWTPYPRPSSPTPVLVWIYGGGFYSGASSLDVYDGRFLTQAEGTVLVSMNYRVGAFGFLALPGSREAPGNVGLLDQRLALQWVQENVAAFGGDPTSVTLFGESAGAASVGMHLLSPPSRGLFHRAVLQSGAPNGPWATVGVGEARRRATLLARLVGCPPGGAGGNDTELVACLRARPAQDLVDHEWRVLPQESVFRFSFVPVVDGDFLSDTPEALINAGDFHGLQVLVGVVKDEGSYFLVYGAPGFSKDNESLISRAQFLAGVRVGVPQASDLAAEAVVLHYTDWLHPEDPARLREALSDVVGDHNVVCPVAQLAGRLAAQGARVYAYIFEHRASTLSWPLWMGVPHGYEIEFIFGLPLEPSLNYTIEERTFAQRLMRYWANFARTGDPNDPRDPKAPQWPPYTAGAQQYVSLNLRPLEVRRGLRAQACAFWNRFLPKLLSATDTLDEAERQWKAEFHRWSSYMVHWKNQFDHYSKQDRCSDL

Acetylcholinesterase [3] = target: T1, Acetylcholinesterase

Sequence of Cholinesterase (P06276 whole entry): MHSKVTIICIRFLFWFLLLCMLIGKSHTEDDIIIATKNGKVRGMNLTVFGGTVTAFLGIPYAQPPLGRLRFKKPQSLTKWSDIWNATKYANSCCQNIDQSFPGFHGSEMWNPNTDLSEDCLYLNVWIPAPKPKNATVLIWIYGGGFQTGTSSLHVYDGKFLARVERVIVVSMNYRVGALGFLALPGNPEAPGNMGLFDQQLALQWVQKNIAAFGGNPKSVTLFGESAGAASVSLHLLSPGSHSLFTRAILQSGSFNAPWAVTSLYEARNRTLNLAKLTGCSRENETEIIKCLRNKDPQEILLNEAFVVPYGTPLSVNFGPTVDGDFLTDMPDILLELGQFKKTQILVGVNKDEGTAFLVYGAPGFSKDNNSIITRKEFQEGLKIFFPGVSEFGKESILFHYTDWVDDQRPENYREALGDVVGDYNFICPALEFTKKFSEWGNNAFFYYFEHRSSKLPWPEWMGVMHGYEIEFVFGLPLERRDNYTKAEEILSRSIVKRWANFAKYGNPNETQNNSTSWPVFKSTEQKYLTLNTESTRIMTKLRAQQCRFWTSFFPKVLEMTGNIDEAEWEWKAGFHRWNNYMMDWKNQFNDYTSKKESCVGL
Sequence of Acetylcholinesterase (Homo sapiens, UniProt P22303) (P22303 whole entry): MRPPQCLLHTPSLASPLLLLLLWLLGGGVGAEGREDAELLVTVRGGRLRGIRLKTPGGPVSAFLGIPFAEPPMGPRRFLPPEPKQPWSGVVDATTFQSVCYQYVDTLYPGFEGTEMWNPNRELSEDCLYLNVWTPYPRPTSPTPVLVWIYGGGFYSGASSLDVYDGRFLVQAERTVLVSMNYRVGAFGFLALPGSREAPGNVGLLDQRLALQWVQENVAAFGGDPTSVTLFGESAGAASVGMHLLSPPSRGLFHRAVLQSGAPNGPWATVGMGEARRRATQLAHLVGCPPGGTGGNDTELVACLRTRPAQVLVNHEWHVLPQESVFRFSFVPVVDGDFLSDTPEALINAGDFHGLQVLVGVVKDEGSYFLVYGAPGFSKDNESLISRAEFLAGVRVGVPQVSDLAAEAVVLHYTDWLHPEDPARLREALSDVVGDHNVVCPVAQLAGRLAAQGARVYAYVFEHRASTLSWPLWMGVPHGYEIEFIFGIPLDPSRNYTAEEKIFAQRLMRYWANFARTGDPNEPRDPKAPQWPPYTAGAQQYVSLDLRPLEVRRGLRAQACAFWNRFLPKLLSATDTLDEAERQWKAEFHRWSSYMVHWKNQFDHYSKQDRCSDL

CC1=C[C@@H]2Cc3nc4cc(Cl)ccc4c(NCCCN(C)CCCCNc4c5c(nc6cc(Cl)ccc46)CCCC5)c3[C@H](C1)C2
IC50 (Cholinesterase): 31.1 nM
IC50 (Acetylcholinesterase [1]): 0.29 nM
IC50 (Acetylcholinesterase [2]): 0.44 nM
IC50 (Acetylcholinesterase [3]): 0.54 nM

CC1=C[C@@H]2Cc3nc4cc(Cl)ccc4c(NCCCN(C)CCCCNc4c5c(nc6ccccc46)CCCC5)c3[C@H](C1)C2
IC50 (Cholinesterase): 16.4 nM
IC50 (Acetylcholinesterase [1]): 0.32 nM
IC50 (Acetylcholinesterase [2]): 0.26 nM
IC50 (Acetylcholinesterase [3]): 0.33 nM

CC1=CC2Cc3nc4cc(Cl)ccc4c(NCCCCCCCCNc4c5c(nc6ccccc46)CCCC5)c3C(C1)C2 (stereo unspecified)
IC50 (Cholinesterase): 4.74 nM
IC50 (Acetylcholinesterase [1]): 0.33 nM
IC50 (Acetylcholinesterase [2]): 0.65 nM
IC50 (Acetylcholinesterase [3]): 1.26 nM

CCC1=CC2Cc3nc4ccccc4c(NCCCCCCCCNc4c5c(nc6ccccc46)CCCC5)c3C(C1)C2 (stereo unspecified)
IC50 (Cholinesterase): 5.55 nM
IC50 (Acetylcholinesterase [1]): 0.82 nM
IC50 (Acetylcholinesterase [2]): 1.67 nM
IC50 (Acetylcholinesterase [3]): 2.19 nM

CC1=CC2Cc3nc4cc(Cl)ccc4c(NCCCCCCCNc4c5c(nc6cc(Cl)ccc46)CCCC5)c3C(C1)C2 (stereo unspecified)
IC50 (Cholinesterase): 7.38 nM
IC50 (Acetylcholinesterase [1]): 0.33 nM
IC50 (Acetylcholinesterase [2]): 1.6 nM
IC50 (Acetylcholinesterase [3]): 1.97 nM

CC1=CC2Cc3nc4cc(Cl)ccc4c(NCCCCCCCCNc4c5c(nc6cc(Cl)ccc46)CCCC5)c3C(C1)C2 (stereo unspecified)
IC50 (Cholinesterase): 7.8 nM
IC50 (Acetylcholinesterase [1]): 0.4 nM
IC50 (Acetylcholinesterase [2]): 1.31 nM
IC50 (Acetylcholinesterase [3]): 2.09 nM

CC1=CC2Cc3nc4cc(Cl)ccc4c(NCCCCCCNc4c5c(nc6cc(Cl)ccc46)CCCC5)c3C(C1)C2 (stereo unspecified)
IC50 (Cholinesterase): 14 nM
IC50 (Acetylcholinesterase [1]): 0.45 nM
IC50 (Acetylcholinesterase [2]): 0.8 nM
IC50 (Acetylcholinesterase [3]): 1.06 nM

CC1=CC2Cc3nc4cc(Cl)ccc4c(NCCCCCCNc4c5c(nc6ccccc46)CCCC5)c3C(C1)C2 (stereo unspecified)
IC50 (Cholinesterase): 7.69 nM
IC50 (Acetylcholinesterase [1]): 0.5 nM
IC50 (Acetylcholinesterase [2]): 0.27 nM
IC50 (Acetylcholinesterase [3]): 0.4 nM

CC1=CC2Cc3nc4cc(Cl)ccc4c(NCCCCCCCNc4c5c(nc6ccccc46)CCCC5)c3C(C1)C2 (stereo unspecified)
IC50 (Cholinesterase): 6.7 nM
IC50 (Acetylcholinesterase [1]): 0.34 nM
IC50 (Acetylcholinesterase [2]): 0.36 nM
IC50 (Acetylcholinesterase [3]): 0.48 nM
